Laboratory results taken from US20250319024A1, “TARGETED NANOPARTICLES AND THEIR USES RELATED TO INFECTIOUS DISEASE” (priority 2021, published 2025).

How the values were obtained:
[1] = system: T. gondii; details: 200 mg/kg per day for 10 days, previous studies; cited from earlier work
[2] = system: M. tuberculosis; details: literature; cited from earlier work
[3] = system: C. albicans, A. fumigatus, C. neoformans; assay: Liposome binding, summary statements over all three fungal species

Molecule: CC[C@H]1OC(=O)[C@H](C)[C@@H](O[C@H]2C[C@@](C)(OC)[C@@H](O)[C@H](C)O2)[C@H](C)[C@@H](O[C@@H]2O[C@H](C)C[C@H](N(C)C)[C@H]2O)[C@](C)(O)C[C@@H](C)CN(C)[C@H](C)[C@@H](O)[C@]1(C)O [Free AZI, Azithromycin]
- mouse survival [1]: 100%

Molecule: CO[C@H]1/C=C/O[C@@]2(C)Oc3c(C)c(O)c4c(O)c(c(/C=N/N5CCN(C)CC5)c(O)c4c3C2=O)NC(=O)/C(C)=C\C=C\[C@H](C)[C@H](O)[C@@H](C)[C@@H](O)[C@@H](C)[C@H](OC(C)=O)[C@@H]1C [free RIF, rifampin]
- doses reported to control murine infections [2]: ~10 mg/kg/day

B1: DCS12: recombinant human DC-SIGN isoform, CRD fused to neck repeats 1 and 2, SEQ ID NO: 12 (protein)
chain: MAHHHHHHYGTGSGKGKGSGSGQSRQDAIYQNLTQLKAAVGELSEKSKLQEIYQELTQLKAAVERLCHPCPWEWTFFQGNCYFMSNSQRNWHDSITACKEVGAQLVVIKSAEEQNFLQLQSSRSNRFTWMGLSDLNQEGTWQWVDGSPLLPSFKQYWNRGEPNNVGEEDCAEFSGNGWNDDKCNLAKFWICKKSAASCSRDEEQFLSPAPATPNPPPA
- bound more efficiently than untargeted AmB-LLs or BSA-AmB-LLs [3]: more than an order of magnitude
